Test results from ChEMBL document CHEMBL1201862, “PubChem BioAssay data set” (2004).
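Assay format: 96-well plates, 48-hour exposure. GI50 is the concentration that inhibits growth by half.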 Calls of active or inactive are those of the source. Cut-off read from the data, not from the text of the source: active = GI50 up to about 1.1 µM and inactive = higher.

What was measured:
Experiment in all cases: DTP human tumour cell line panel, 48 h
NCI-H226 = test system: NCI-H226
SNB-75 = test system: SNB-75
Malme-3M = test system: Malme-3M
MOLT-4 = test system: MOLT-4
NCI-H522 = test system: NCI-H522
U-251 = test system: U-251
SK-OV-3 = test system: SK-OV-3
LXFL 529 = test system: LXFL 529
SNB-19 = test system: SNB-19
SF-295 = test system: SF-295
A549 = test system: A549
NCI-H460 = test system: NCI-H460
COLO 205 = test system: COLO 205
OVCAR-3 = test system: OVCAR-3
SF-268 = test system: SF-268
UACC-62 = test system: UACC-62
OVCAR-8 = test system: OVCAR-8

Measured: GI50

C[C@]12CCC(=O)C[C@H]1CCC(O)[C@@H]2Br (some centres not stated)
inactive: NCI-H226 > 100 µM | SNB-75 > 100 µM | Malme-3M > 100 µM | MOLT-4 > 100 µM | NCI-H522 > 100 µM | U-251 > 100 µM | SK-OV-3 > 100 µM | LXFL 529 > 100 µM | SNB-19 > 100 µM | SF-295 > 100 µM | A549 > 100 µM | NCI-H460 > 100 µM | COLO 205 > 100 µM | OVCAR-3 > 100 µM | SF-268 > 100 µM | UACC-62 > 100 µM | OVCAR-8 > 100 µM

Cc1c(-c2nnc(-c3ccc(Cl)cc3)o2)c(=O)n(-c2ccccc2)n1C
inactive: NCI-H226 > 100 µM | SNB-75 > 100 µM | Malme-3M > 100 µM | MOLT-4 > 100 µM | NCI-H522 > 100 µM | U-251 > 100 µM | SK-OV-3 > 100 µM | LXFL 529 > 100 µM | SNB-19 > 100 µM | SF-295 > 100 µM | A549 > 100 µM | NCI-H460 > 100 µM | COLO 205 > 100 µM | OVCAR-3 > 100 µM | SF-268 > 100 µM | UACC-62 > 100 µM | OVCAR-8 > 100 µM

CN(C)c1ccc(/C=C(\C#N)C(=O)c2ccccc2)cc1Br
inactive: NCI-H226 39.3 µM | SNB-75 41.8 µM | Malme-3M > 100 µM | MOLT-4 36.2 µM | NCI-H522 > 100 µM | U-251 > 100 µM | SK-OV-3 > 100 µM | LXFL 529 > 100 µM | SNB-19 > 100 µM | SF-295 > 100 µM | A549 > 100 µM | NCI-H460 > 100 µM | COLO 205 > 100 µM | OVCAR-3 > 100 µM | SF-268 > 100 µM | UACC-62 51.3 µM | OVCAR-8 > 100 µM

COC(=O)C(=O)C(C(=O)C=C(C)C)C(=O)C(=O)Nc1ccc(Cl)cc1C (configuration not stated)
inactive: NCI-H226 > 100 µM | SNB-75 > 100 µM | Malme-3M > 100 µM | MOLT-4 > 100 µM | NCI-H522 69.2 µM | U-251 > 100 µM | SK-OV-3 > 100 µM | LXFL 529 > 100 µM | SNB-19 > 100 µM | SF-295 > 100 µM | A549 > 100 µM | NCI-H460 > 100 µM | COLO 205 > 100 µM | OVCAR-3 > 100 µM | SF-268 > 100 µM | UACC-62 > 100 µM | OVCAR-8 > 100 µM

O=C1[C@H]2ON(c3ccccc3)C(c3ccccc3Cl)[C@H]2C(=O)N1c1ccc(Cc2ccc(N3C(=O)[C@@H]4ON(c5ccccc5)C(c5ccccc5Cl)[C@@H]4C3=O)cc2)cc1 (some centres not stated)
inactive: NCI-H226 > 100 µM | SNB-75 > 100 µM | Malme-3M > 100 µM | MOLT-4 > 100 µM | NCI-H522 > 100 µM | U-251 > 100 µM | SK-OV-3 > 100 µM | LXFL 529 > 100 µM | SNB-19 > 100 µM | SF-295 > 100 µM | A549 > 100 µM | NCI-H460 > 100 µM | COLO 205 > 100 µM | OVCAR-3 > 100 µM | SF-268 > 100 µM | UACC-62 > 100 µM | OVCAR-8 > 100 µM

CCCCCC/C=C1\CCC(CN2CCCC2)C1=O (configuration not stated)
inactive: NCI-H226 19.1 µM | SNB-75 20.9 µM | Malme-3M 19.2 µM | MOLT-4 3.76 µM | NCI-H522 1.56 µM | U-251 15.6 µM | SK-OV-3 18.7 µM | LXFL 529 3.85 µM | SNB-19 > 38.5 µM | SF-295 18.9 µM | A549 20.5 µM | NCI-H460 24.6 µM | COLO 205 16.4 µM | OVCAR-3 13.9 µM | SF-268 18.5 µM | UACC-62 18.2 µM | OVCAR-8 17.2 µM

COc1cc(Nc2cnc3ccc(N)cc3n2)cc(OC)c1OC
inactive: NCI-H226 > 100 µM | SNB-75 49.3 µM | Malme-3M > 65.2 µM | MOLT-4 49 µM | NCI-H522 50.1 µM | U-251 > 100 µM | SK-OV-3 > 86.9 µM | LXFL 529 56.5 µM | SNB-19 > 100 µM | SF-295 > 96.6 µM | A549 > 100 µM | NCI-H460 69.3 µM | COLO 205 42.5 µM | OVCAR-3 41.3 µM | SF-268 > 100 µM | UACC-62 69.3 µM | OVCAR-8 > 100 µM

O=C(CCN1CCCCC1CCO)Nc1ccc2c(c1)C(=O)c1ccc(NC(=O)CCN3CCCCC3CCO)cc1C2=O (configuration not stated)
inactive: NCI-H226 5.71 µM | SNB-75 2.81 µM | Malme-3M 2.64 µM | MOLT-4 4.25 µM | NCI-H522 2.16 µM | U-251 4.08 µM | SK-OV-3 5.12 µM | LXFL 529 2.32 µM | SNB-19 6.07 µM | SF-295 16.7 µM | A549 16.7 µM | NCI-H460 3.6 µM | COLO 205 2.11 µM | OVCAR-3 2.37 µM | SF-268 4.88 µM | UACC-62 2.44 µM | OVCAR-8 3.73 µM

O=C1c2c(c3c4ccccc4[nH]c3c3[nH]c4ccccc4c23)C(=O)N1Cc1ccccc1
inactive: NCI-H226 2.1 µM | SNB-75 3.09 µM | Malme-3M 3.54 µM | MOLT-4 2.14 µM | NCI-H522 1.77 µM | U-251 2.33 µM | SK-OV-3 2.96 µM | LXFL 529 3.44 µM | SNB-19 2.8 µM | SF-295 3.9 µM | A549 3.48 µM | NCI-H460 3.3 µM | COLO 205 2.2 µM | OVCAR-3 2.81 µM | SF-268 3.01 µM | UACC-62 4.25 µM | OVCAR-8 4.47 µM

CN(C)c1nnnn1-c1c(N)n(C)c(=O)n(C)c1=O
inactive: NCI-H226 > 100 µM | SNB-75 > 100 µM | Malme-3M > 100 µM | MOLT-4 > 100 µM | NCI-H522 > 100 µM | U-251 > 100 µM | SK-OV-3 > 100 µM | LXFL 529 > 100 µM | SNB-19 > 100 µM | SF-295 > 100 µM | A549 > 100 µM | NCI-H460 > 100 µM | COLO 205 > 100 µM | OVCAR-3 > 100 µM | SF-268 > 100 µM | UACC-62 > 100 µM | OVCAR-8 > 100 µM

COC1=C(C)C(=O)c2c(cc3c(c2O)C(C)(CCC=C(C)C)C(C)O3)C1=O (configuration not stated)
inactive: NCI-H226 17.6 µM | SNB-75 19.9 µM | Malme-3M > 76.4 µM | MOLT-4 > 100 µM | NCI-H522 > 100 µM | U-251 > 44.6 µM | SK-OV-3 > 100 µM | LXFL 529 > 100 µM | SNB-19 19.2 µM | SF-295 20.3 µM | A549 20 µM | NCI-H460 14.1 µM | COLO 205 > 100 µM | OVCAR-3 > 100 µM | SF-268 > 100 µM | UACC-62 22.3 µM | OVCAR-8 > 100 µM
